This note sets out measurements from US11111251B2, “Positive allosteric modulators of the muscarinic acetylcholine receptor M1” (Vanderbilt University, priority 2016, dated 2021).

Like-named read-outs stand apart in the source and are kept apart here. Some results are limits rather than exact numbers.

The target of this assay is T1, human mAChR M1 (Homo sapiens, UniProt P11229).
T1 sequence (P11229 1-460): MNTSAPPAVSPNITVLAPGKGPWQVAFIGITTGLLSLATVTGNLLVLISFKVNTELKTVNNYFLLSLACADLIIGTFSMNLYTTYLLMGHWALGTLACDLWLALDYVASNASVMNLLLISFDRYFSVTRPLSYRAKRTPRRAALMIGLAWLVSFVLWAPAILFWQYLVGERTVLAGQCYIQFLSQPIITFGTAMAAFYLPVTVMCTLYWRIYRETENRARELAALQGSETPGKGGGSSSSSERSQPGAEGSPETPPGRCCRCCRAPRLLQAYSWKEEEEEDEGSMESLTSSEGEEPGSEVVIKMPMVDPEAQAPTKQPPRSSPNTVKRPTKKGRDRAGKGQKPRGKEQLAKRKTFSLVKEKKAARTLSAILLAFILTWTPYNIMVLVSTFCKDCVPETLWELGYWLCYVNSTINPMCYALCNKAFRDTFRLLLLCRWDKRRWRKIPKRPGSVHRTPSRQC
Description: mAChR M1 cell-based functional assay: calcium mobilization, positive allosteric modulator mode (increase in EC20 acetylcholine response). The note with it: for Emax: read-out: Human M1 Emax (%). The gist of the method: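 PAM potency reflects the concentration-dependent increase in calcium response to an EC20 acetylcholine challenge, given 144 s into a 300 s read after compound addition at 4 s (EC80 follows at 230 s). Cells were hM1-expressing CHO-K1, loaded 50 min with Fluo-4 AM. Curves used 11 points at 1:3 dilutions and four-parameter logistic fitting.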
For orientation: Calcium flux is commonly read through the fluorescence of an indicator in the cells.

The mark [1] stands for this setting: Table 2, human M1, read-out: Human M1 EC50.
[2] abbreviates: Table 1, mAChR M1 cell-based functional assay, PAM mode, species not given, read-out: EC50.

For `CO[C@H]1CCCC[C@@H]1NC(=O)c1cc(Cc2ccc(-c3csc(C)n3)cc2)c2sccc2n1` [Compound 195, N-[(1S,2S)-2-methoxycyclohexyl]-7-[[4-(2-methylthiazol-4-yl)phenyl]methyl]thieno[3,2-b]pyridine-5-carboxamide], the EC50 (as a rule, the concentration needed to bring the measured effect to its halfway point) under setting [1] amounted to 2.39 µM. Also, under “Table 2, human M1”, the Emax (usually the maximal effect, on the per cent scale that the assay sets) is 81.8%.

In the case of `Cc1ncc(Cc2cc(C(=O)N[C@@H]3CCCC[C@H]3O)nc3ccsc23)cn1` [Compound 127, N-[(1R,2R)-2-hydroxycyclohexyl]-7-[(2-methylpyrimidin-5-yl)methyl]thieno[3,2-b]pyridine-5-carboxamide], the concentration for a half-maximal effect (EC50) under setting [1] was over 10 µM. In addition, the Emax (Table 2, human M1) stood at 79.2%.

With `COCCNC(=O)c1cc(Cc2ccc(-c3ccn(C)n3)nc2)c2sccc2n1` [Compound 416, N-(2-methoxyethyl)-7-[[6-(1-methylpyrazol-3-yl)-3-pyridyl]methyl]thieno[3,2-b]pyridine-5-carboxamide], the EC50 under setting [1] amounted to 1.29 µM. The Emax (Table 2, human M1) was 71.4%.

“N-[(1S,2S)-2-hydroxycyclohexyl]-7-(4-[(4-2-ylphenyl)methyl]thieno[3,2-b]pyridine-5-carboxamide [Compound 295]”: the “Human M1 Emax (%)” value (Table 2, human M1) came to 72.42%.

On to `Cn1ccc2nc(C(=O)NCC3CCOCC3)cc(Cc3ccc(-c4cscn4)cc3)c21` [Compound 466, 1-methyl-N-(tetrahydropyran-4-ylmethyl)-7-[(4-thiazol-4-ylphenyl)methyl]pyrrolo[3,2-b]pyridine-5-carboxamide], for which the concentration for a half-maximal effect (EC50) under setting [1] stood at 0.364 µM. Further, the Emax (Table 2, human M1) was 72.2%.

On to `Cc1ccc(Cc2cc(C(=O)NC3CCCNC3=O)nc3c(C)csc23)cn1` (stereo not drawn) [Compound 110, 3-methyl-7-[(6-methyl-3-pyridyl)methyl]-N-(2-oxo-3-piperidyl)thieno[3,2-b]pyridine-5-carboxamide], for which the EC50 under setting [1] was 5.06 µM. In addition, where the note is “Table 2, human M1”, the Emax came out at 71%.

Turning to `Cn1ccc(-c2ccc(Cc3cc(C(=O)NCC4CCOCC4)nc4ccn(C)c34)cn2)n1` [Compound 508, 1-methyl-7-[[6-(1-methylpyrazol-3-yl)-3-pyridyl]methyl]-N-(tetrahydropyran-4-ylmethyl)pyrrolo[3,2-b]pyridine-5-carboxamide;], under setting [1], the EC50 was 2.31 µM. Also, where the note is “Table 2, human M1”, the Emax was found to be 79.9%.

Take `Cc1nc(-c2ccc(Cc3cc(C(=O)NC4CN(C(C)(C)C)C4)nc4ccsc34)cc2)cs1` [Compound 179, N-(1-tert-butylazetidin-3-yl)-7-[[4-(2-methylthiazol-4-yl)phenyl]methyl]thieno[3,2-b]pyridine-5-carboxamide]: the EC50 under setting [1] amounted to 3.8 µM. The maximum response (Emax) (Table 2, human M1) turned out to be 65.2%.

`CC1(NC(=O)c2cc(Cc3ccc(-n4cccn4)cc3)c3sccc3n2)COC1` [Compound 276, N-(3-methyloxetan-3-yl)-7-[(4-pyrazol-1-ylphenyl)methyl]thieno[3,2-b]pyridine-5-carboxamide]: under setting [1], the EC50 amounted to 5.5 µM. The maximum response (Emax) (Table 2, human M1) is 64.5%.

Consider `CO[C@H]1CCCC[C@@H]1NC(=O)c1cc(Oc2ccc(C)nc2)c2sccc2n1` [Compound 24, N-[(1S,2S)-2-methoxycyclohexyl]-7-[(6-methyl-3-pyridyl)oxy]thieno[3,2-b]pyridine-5-carboxamide], for which, under setting [2], the concentration giving a half-maximal response (EC50) is over 10 µM.

Turning to `Cc1ccc(Oc2cc(C(=O)N[C@H]3CCCCC[C@@H]3O)nc3ccsc23)cn1` [Compound 25, N-[(1S,2S)-2-hydroxycycloheptyl]-7-[(6-methyl-3-pyridyl)oxy]thieno[3,2-b]pyridine-5-carboxamide], under setting [2], the 50% effective concentration (EC50) stood at 0.75 µM.

On to `Cn1ccc(-c2ccc(Cc3cc(C(=O)NC[C@H]4CCCN4)nc4ccsc34)cn2)n1` [Compound 427], for which the concentration for a half-maximal effect (EC50) under setting [1] is 0.316 µM. The Emax (Table 2, human M1) was 64.6%.

Regarding `O=C(NC1CC(F)(F)C1)c1cc(Cc2ccc(-c3nccs3)cc2)c2sccc2n1` [Compound 383], the half-maximal effective concentration (EC50) under setting [1] was over 10 µM. In addition, the maximum response (Emax) (Table 2, human M1) is 30.4%.

As to `Cn1ccc(-c2ccc(Cc3cc(C(=O)N[C@@H]4COCC[C@H]4O)nc4ccsc34)cn2)n1` [Compound 410], under setting [1], the 50% effective concentration (EC50) came to 0.0562 µM. For the same compound, the Emax (Table 2, human M1) stood at 63.4%.

With `COC1CC(NC(=O)c2cc(Cc3ccc(-c4cscn4)cc3)c3sccc3n2)C1` (stereo not drawn) [Compound 204, N-(3-methoxycyclobutyl)-7-[(4-thiazol-4-ylphenyl)methyl]thieno[3,2-b]pyridine-5-carboxamide], under setting [1], the EC50 came out at 0.897 µM. The Emax (Table 2, human M1) came out at 83.5%.

Regarding `Cn1cc(-c2ccc(Cc3cc(C(=O)NC[C@H]4CCCO4)nc4ccsc34)cn2)cn1` [Compound 339, 7-[[6-(1-methylpyrazol-4-yl)-3-pyridyl]methyl]-N-[[(2R)-tetrahydrofuran-2-yl]methyl]thieno[3,2-b]pyridine-5-carboxamide], the EC50 under setting [1] amounted to 0.131 µM. For the same compound, the Emax (Table 2, human M1) was 87.4%.

For `Cc1csc2c(Cc3ccc(-c4ccn(C)n4)cc3)cc(C(=O)N[C@@H]3CCOC3)nc12` [Compound 305, 3-methyl-7-[[4-(1-methylpyrazol-3-yl)phenyl]methyl]-N-[(3R)-tetrahydrofuran-3-yl]thieno[3,2-b]pyridine-5-carboxamide], the EC50 under setting [1] is 2.85 µM. Further, the Emax (Table 2, human M1) came to 76.3%.

Consider `Cc1nc(-c2ccc(Cc3cc(C(=O)N[C@@H]4CCOC4)nc4ccsc34)cc2)co1` [Compound 160, 7-[[4-(2-methyloxazol-4-yl)phenyl]methyl]-N-[(3R)-tetrahydrofuran-3-yl]thieno[3,2-b]pyridine-5-carboxamide], for which, under setting [1], the concentration giving a half-maximal response (EC50) was determined as 3.93 µM. Also, the Emax (Table 2, human M1) is 77.5%.

Take `O=C(NCC1CCCO1)c1cc(Cc2ccc(-c3nccs3)cc2)c2sccc2n1` (stereo not drawn) [Compound 384, N-(tetrahydrofuran-2-ylmethyl)-7-[(4-thiazol-2-ylphenyl)methyl]thieno[3,2-b]pyridine-5-carboxamide]: the EC50 under setting [1] came to 1.37 µM. In addition, the maximal effect (Emax) (Table 2, human M1) came out at 65.2%.

Regarding `Cc1ccc(Cc2cc(C(=O)NC3CC(F)(F)C3)nc3ccsc23)cn1` [Compound 260, N-(3,3-difluorocyclobutyl)-7-[(6-methyl-3-pyridyl)methyl]thieno[3,2-b]pyridine-5-carboxamide], under setting [1], the EC50 was 5.37 µM. Also, for the setting “Table 2, human M1”, the maximal effect (Emax) is 58.4%.

Consider `CCOC(c1ccc(C)nc1)c1cc(C(=O)N[C@@H]2CCCC[C@H]2O)nc2ccsc12` (stereo partly drawn) [Compound 86, 7-[ethoxy-(6-methyl-3-pyridyl)methyl]-N-[(1R,2R)-2-hydroxycyclohexyl]thieno[3,2-b]pyridine-5-carboxamide], for which the EC50 under setting [1] was 0.255 µM. The Emax (Table 2, human M1) came to 87.7%.

Turning to `Cn1ccc(-c2ccc(Cc3cc(C(=O)NC[C@@H]4CCCO4)nc4ccsc34)cn2)n1` [Compound 414, 7-[[6-(1-methylpyrazol-3-yl)-3-pyridyl]methyl]-N-[[(2S)-tetrahydrofuran-2-yl]methyl]thieno[3,2-b]pyridine-5-carboxamide], under setting [1], the concentration for a half-maximal effect (EC50) amounted to 0.703 µM. Moreover, where the note is “Table 2, human M1”, the maximum response (Emax) was 71.5%.

On to `Cn1ccc(-c2ccc(Cc3cc(C(=O)NC4CCOCC4)nc4ccn(C)c34)cc2)n1` [Compound 473, 1-methyl-7-[[4-(1-methylpyrazol-3-yl)phenyl]methyl]-N-tetrahydropyran-4-yl-pyrrolo[3,2-b]pyridine-5-carboxamide], for which the EC50 under setting [1] is 0.106 µM. Moreover, where the note is “Table 2, human M1”, the Emax worked out at 85.8%.

As for `Cc1nc(-c2ccc(Cc3cc(C(=O)NC4CCCCC4)nc4ccsc34)cc2)cs1` [Compound 185, N-cyclohexyl-7-[[4-(2-methylthiazol-4-yl)phenyl]methyl]thieno[3,2-b]pyridine-5-carboxamide], the EC50 under setting [1] is 4.23 µM. Moreover, the Emax (Table 2, human M1) turned out to be 52.1%.

Turning to `Cn1ccc(-c2ccc(Cc3cc(C(=O)N[C@H]4CCOC4)nc4ccsc34)cn2)n1` [Compound 417, 7-[[6-(1-methylpyrazol-3-yl)-3-pyridyl]methyl]-N-[(3S)-tetrahydrofuran-3-yl]thieno[3,2-b]pyridine-5-carboxamide], the concentration giving a half-maximal response (EC50) under setting [1] is 4.65 µM. For the same compound, where the note is “Table 2, human M1”, the Emax was determined as 66.6%.

Take `Cn1ccc(-c2ccc(Cc3cc(C(=O)NC4COC4)nc4ccsc34)cn2)n1` [Compound 415]: the EC50 under setting [1] was found to be 8.35 µM. Further, where the note is “Table 2, human M1”, the Emax was found to be 63%.

In the case of `O=C(NCC1CCO1)c1cc(Cc2ccc(-c3nccs3)cc2)c2sccc2n1` (stereo not drawn) [Compound 382, N-(oxetan-2-ylmethyl)-7-[(4-thiazol-2-ylphenyl)methyl]thieno[3,2-b]pyridine-5-carboxamide], the concentration giving a half-maximal response (EC50) under setting [1] came out at 0.386 µM. For the same compound, for the setting “Table 2, human M1”, the maximal response (Emax) was determined as 56.6%.

Regarding `O=C(N[C@H]1CCOC[C@@H]1O)c1cc(Cc2ccc(-c3nccs3)cc2)c2sccc2n1` [Compound 294], the concentration for a half-maximal effect (EC50) under setting [1] is 0.0157 µM. Further, the maximum response (Emax) (Table 2, human M1) is 71.1%.

For `COC1CC(NC(=O)c2cc(Cc3ccc(-c4csc(C)n4)cc3)c3sccc3n2)C1` (stereo not drawn) [Compound 180, N-(3-methoxycyclobutyl)-7-[[4-(2-methylthiazol-4-yl)phenyl]methyl]thieno[3,2-b]pyridine-5-carboxamide], the concentration for a half-maximal effect (EC50) under setting [1] came to 3.3 µM. The maximal effect (Emax) (Table 2, human M1) is 72.1%.

As to `Cn1cc(-c2ccc(Cc3cc(C(=O)NC4CC5(COC5)C4)nc4ccsc34)cn2)cn1` [Compound 327, 7-[[6-(1-methylpyrazol-4-yl)-3-pyridyl]methyl]-N-(2-oxaspiro[3.3]heptan-6-yl)thieno[3,2-b]pyridine-5-carboxamide], the half-maximal effective concentration (EC50) under setting [1] turned out to be 0.166 µM. Further, the maximal response (Emax) (Table 2, human M1) was 79.2%.
